Laboratory results published in the RepoRT retention time repository (doi:10.1021/acs.analchem.1c00972).

Test: RP, Waters ACQUITY UPLC BEH C18, 100 × 1 mm, 1.7 µm, 50 °C, 0.3 mL/min, estimated dead time 0.17 min; A: water + 0.1% formic acid + 20 mM ammonium formate; B: methanol + 0.1% formic acid + 20 mM ammonium formate; gradient (min/%B) 0/0 15/100 21/100 22/0 30/0
Conditions: stereoisomer not certain

SMILES | LC retention time
O=[N+]([O-])c1ccc(C2OC2c2ccc([N+](=O)[O-])cc2S(=O)(=O)O)c(S(=O)(=O)O)c1 (stereo not drawn) | 11.5 min
CC(C)(C)Nc1nc(=O)[nH]c(=O)[nH]1 | 13.3 min
CNC(=O)NCc1cnc(Cl)s1 | 7.69 min
CC1(C)C2CC=C(CO)C1C2 (single isomer, unassigned; (-)) [(-)-Myrtenol] | 11.5 min
CC(C)C1CCC(Cc2ccc(Cl)cc2)C1(O)Cn1cncn1 (single isomer, unassigned; isomer 1) [Ipconazole (Isomer 1)] | 16.4 min
CC(C)(N)CN [1,2-Diamino-2-methylpropane] | 18.5 min
CN1CCN(C)C1=O [1,3-Dimethyl-2-imidazolidinone] | 6.1 min
Cn1c(=O)c2[nH]c(=O)[nH]c2n(C)c1=O [1,3-Dimethyluric acid] | 5.8 min
Nc1ccc2nc3c(N)cccc3nc2c1 [1,7-Diaminophenazine] | 8.24 min
CC(C)c1ccc(NC(N)=O)cc1 [1-(4-Isopropylphenyl)-Harnstoff] | 12.3 min
Cc1nccc2ccccc12 [1-Methylisochinolin] | 6.14 min
CC(C)NC(=O)NC(C)C [1.3-Diisopropylurea] | 8.54 min
O=c1ccn(C2OC(CO)C(O)C2(F)F)c(=O)[nH]1 (stereo not drawn) [2',2'-Difluoro-2'-deoxyuridine] | 4.8 min
Nc1ccc(Cl)cc1Cl [2,4-Dichloroaniline] | 17.6 min
Nc1c(Cl)cccc1Cl [2,6-Dichloroaniline] | 17.6 min
Nc1ccc2nc3ccc(N)cc3nc2c1 [2,8-Diaminophenazine] | 8.24 min
OCCc1cccc(O)c1 [2-(3-Hydroxyphenyl)ethanol] | 2.8 min
CCN(CCO)c1cccc(C)c1 [2-(N-Ethyl-N-m-toluidino)ethanol] | 6.13 min
CC(=O)c1ccc2ccccc2c1 [2-Acetonaphthone] | 13.5 min
COc1nc(C)nc(N)n1 [2-Amino-4-methoxy-6-methyl-1.3.5-triazine (MMT)] | 5.15 min
Nc1nc2ccccc2[nH]1 [2-Aminobenzimidazole] | 6.08 min
CCOc1ccccc1C(N)=O [2-Ethoxybenzamide] | 10.1 min

SMILES | LC retention time
COc1cccc(CO)c1O [2-Hydroxy-3-methoxybenzyl alcohol] | 9 min
Cn1sccc1=O [2-Methyl-4-isothiazolin-3-one] | 3.3 min
Cc1ccccc1O [2-Methylphenol] | 14.3 min
Nc1ccc(Cl)c(Cl)c1 [3,4-Dichloroaniline] | 17.6 min
O=C(O)c1cc(Br)c(O)c(Br)c1 [3,5-Dibromo-4-hydroxybenzoic acid] | 11.4 min
Nc1cc(Cl)cc(Cl)c1 [3,5-Dichloroaniline] | 17.6 min
CCCCCCCCSCCOCCOCCOCCO [3,6,9-Trioxa-12-thia-eicosanol] | 18.3 min
OCCc1c[nH]c2ccccc12 [3-(2-Hydroxyethyl)indole] | 7 min
Cc1ccc(N)cc1Cl [3-Chloro-4-methylaniline] | 10.1 min
CCCCCCCC(O)CC(=O)O (stereo not drawn) [3-Hydroxycapric acid] | 12.3 min
O=C(O)CCc1c[nH]c2ccccc12 [3-Indolepropionic acid] | 11.7 min
Cc1cccc(O)c1 [3-Methylphenol] | 14.3 min
Nc1ccc(C=Cc2ccc(N)cc2S(=O)(=O)O)c(S(=O)(=O)O)c1 [4,4'-Diaminostilbene-2,2'-disulfonic acid] | 9.71 min
Nc1cc(Cl)c(S(N)(=O)=O)cc1S(N)(=O)=O [4-Amino-6-chloro-1,3-benzenedisulfonamide] | 3.6 min
Cc1c(N)c(=O)n(-c2ccccc2)n1C [4-Aminoantipyrine] | 7.28 min
Nc1ccc(Br)cc1 [4-Bromoaniline] | 8.49 min
O=c1cc(O)c2ccccc2o1 [4-Hydroxycoumarin] | 10.7 min
CC(C)c1ccc(N)cc1 [4-Isopropylaniline] | 9.8 min
Cc1ccc(O)cc1 [4-Methylphenol] | 14.3 min
CC(=O)c1ccc(N)cc1 [4-aminoacetophenone] | 2.5 min
CCCCCCCCc1ccc(O)cc1 [4-n-Octylphenol] | 16.9 min
Cc1cc2n[nH]nc2cc1C [5,6-Dimethyl-1,1,1-benzotriazol] | 11.2 min

SMILES | LC retention time
O=c1cc(-c2ccccc2)c2c(O)cc(O)cc2o1 [5,7-Dihydroxy-4-phenylcoumarin] | 12.1 min
Cc1ccc(N)cc1O [5-Amino-o-cresol] | 3.69 min
O=C(O)Cc1c[nH]c2ccc(O)cc12 [5-Hydroxyindole-3-acetic acid] | 6.7 min
Cc1ccc2n[nH]nc2c1 [5-Methyl-1-H-benzotriazol] | 9.89 min
CC(=O)C1CCC2C3CC=C4CC(O)CCC4(C)C3CCC12C (stereo not drawn) [5-Pregnen-3.beta.-ol-20-one] | 15.2 min
CC(C)=CCc1c(O)cc(O)c2c1OC(c1ccc(O)cc1)CC2=O (stereo not drawn) [8-Prenylnaringenin] | 14.5 min
CC(C=CC1=C(C)CCCC1(C)C)=CC=CC(C)=CC(=O)O [9-cis-Retinoic acid] | 16 min
CCCC(=O)Nc1ccc(OCC(O)CNC(C)C)c(C(C)=O)c1 (stereo not drawn) [Acebutolol] | 15.9 min
CC(=NC#N)N(C)Cc1ccc(Cl)nc1 [Acetamiprid] | 9.33 min
CCOCN(C(=O)CS(=O)(=O)O)c1c(C)cccc1CC [Acetochlor ESA] | 11.9 min
CCOCN(C(=O)C(=O)O)c1c(C)cccc1CC [Acetochlor OA] | 15.5 min
CC(=O)Oc1ccccc1C(=O)O [Acetylsalicyls<e4>ure] | 16.5 min
N#CCCCCC#N [Adiponitrile] | 5.21 min
C=C1C(O)C2(O)OCC34C(CC5C(C)=CC(=O)C(O)C5(C)C23)OC(=O)CC14 (stereo not drawn) [Ailanthone] | 7.89 min
CCc1cccc(CC)c1N(COC)C(=O)CS(=O)(=O)O [Alachlor tert-sulfonic acid (ESA)] | 11.8 min
CC(C)(C)NCC(O)c1ccc(O)c(CO)c1 (stereo not drawn) [Albuterol] | 6 min
COCCCOc1cc(CC(CC(N)C(O)CC(C(=O)NCC(C)(C)C(N)=O)C(C)C)C(C)C)ccc1OC (stereo not drawn) [Aliskiren] | 13.6 min
Cc1ccc(N=CN(C)C=Nc2ccc(C)cc2C)c(C)c1 [Amitraz] | 17.7 min
CC1CC(O)C2(O)C13CC(OC(=O)C3O)C(C)(O)C21COC1=O (stereo not drawn) [Anisatin] | 7.91 min
O=c1cc(-c2ccc(O)cc2)oc2cc(OC3OC(CO)C(O)C(O)C3OC3OCC(O)(CO)C3O)cc(O)c12 (stereo not drawn) [Apiin] | 10.3 min
CC(C)Nc1nc(N)[nH]c(=O)n1 [Atrazin-desethyl-2-hydroxy] | 4.31 min
CCC(C)C1OC2(C=CC1C)CC1CC(CC=C(C)C(OC3CC(OC)C(OC4CC(OC)C(O)C(C)O4)C(C)O3)C(C)C=CC=C3COC4C(O)C(C)=CC(C(=O)O1)C34O)O2 (stereo not drawn) [Avermectin B1a (Abamectin)] | 18.1 min

SMILES | LC retention time
N#Cc1ccccc1Oc1cc(=O)[nH]cn1 [Azoxystrobin-metabolite] | 8.9 min
CC(=O)OC1C(=O)C2(C)C(O)CC3OCC3(OC(C)=O)C2C(OC(=O)c2ccccc2)C2(O)CC(O)C(C)=C1C2(C)C (stereo not drawn) [Baccatin III] | 12.5 min
CC(C)OC(=O)NC(C(=O)NC(C)c1nc2ccc(F)cc2s1)C(C)C (stereo not drawn) [Benthiavalicarb-Isopropyl] | 14.5 min
Nc1nc(N)nc(-c2ccccc2)n1 [Benzoguanamine] | 7.87 min
O=C(O)c1ccc2ncsc2c1 [Benzothiazole-6-carbons<e4>ure] | 9.32 min
c1ccc2scnc2c1 [Benzothiazole] | 10.8 min
CC(=O)OCC(=O)C1(O)C(C)CC2C3CCC4=CC(=O)C=CC4(C)C3(F)C(O)CC21C (stereo not drawn) [Betamethasone-21-acetate] | 14.1 min
CCOCCOC(=O)c1ccccc1C(=O)OCCOCC [Bis(2-ethoxyethyl)phthalate] | 13.3 min
COCCOC(=O)c1ccccc1C(=O)OCCOC [Bis(2-methoxyethyl)phthalate] | 12.3 min
CC(C)CC(C)OC(=O)c1ccccc1C(=O)OC(C)CC(C)C (stereo not drawn) [Bis(4-methyl-2-pentanyl)phthalate] | 18.2 min
Oc1ccc(C(=C(Cl)Cl)c2ccc(O)cc2)cc1 [Bisphenol C-dichloride] | 10.5 min
CC(c1ccc(O)cc1)c1ccc(O)cc1 [Bisphenol E] | 11.5 min
Oc1ccc(C2(c3ccc(O)cc3)CCCCC2)cc1 [Bisphenol Z] | 16 min
Cn1cc(C(=O)Nc2ccc(F)cc2-c2ccc(Cl)c(Cl)c2)c(C(F)F)n1 [Bixafen] | 15.4 min
CCC(C)n1c(=O)[nH]c(C)c(Br)c1=O (stereo not drawn) [Bromacil] | 11.5 min
CCCCOc1ccc(CC(=O)NO)cc1 [Bufexamac] | 12.6 min
CCCCN1CCCCC1C(=O)Nc1c(C)cccc1C (stereo not drawn) [Bupivacaine] | 10.6 min
CCCCOCN(C(=O)CS(=O)(=O)O)c1c(CC)cccc1CC [Butachlor ESA] | 14.5 min
CCC1(O)C(=O)OCc2c1cc1n(c2=O)Cc2cc3ccccc3nc2-1 (stereo not drawn) [Camptothecin] | 12 min
CC1=C(C(=O)Nc2ccccc2)SCCO1 [Carboxin] | 11.9 min
NS(=O)(=O)c1ccc(-n2nc(C(F)(F)F)cc2-c2ccc(C(=O)O)cc2)cc1 [Celecoxib Carboxylic Acid] | 13.6 min
CCN(CC)C(=O)Nc1ccc(OCC(O)CNC(C)(C)C)c(C(C)=O)c1 (stereo not drawn) [Celiprolol] | 9.97 min
